From ChEMBL document CHEMBL1145498, “A systematic interaction map of validated kinase inhibitors with Ser/Thr kinases” (Proc Natl Acad Sci U S A, 2007)

Molecular target: Calcium/calmodulin-dependent protein kinase type 1D (Homo sapiens) (UniProt Q8IU85)

ΔTm [°C] | Compound
0.3 | Cc1ccc(NC(=O)c2cccc(N(C)C)c2)cc1NC(=O)c1ccc(O)cc1
0.2 | Nc1n[nH]c2nc3ccccc3nc12 [QUINOXALINE1]

Compound | ΔTm [°C]
COc1cc(C[C@H]2C(=O)OC[C@@H]2Cc2ccc(OC)c(OC)c2)ccc1O [ARCTIGENIN] | 0.1

Molecular target: Cyclin-dependent kinase 6 (Homo sapiens) (UniProt Q00534)
Sequence (Q00534 whole entry): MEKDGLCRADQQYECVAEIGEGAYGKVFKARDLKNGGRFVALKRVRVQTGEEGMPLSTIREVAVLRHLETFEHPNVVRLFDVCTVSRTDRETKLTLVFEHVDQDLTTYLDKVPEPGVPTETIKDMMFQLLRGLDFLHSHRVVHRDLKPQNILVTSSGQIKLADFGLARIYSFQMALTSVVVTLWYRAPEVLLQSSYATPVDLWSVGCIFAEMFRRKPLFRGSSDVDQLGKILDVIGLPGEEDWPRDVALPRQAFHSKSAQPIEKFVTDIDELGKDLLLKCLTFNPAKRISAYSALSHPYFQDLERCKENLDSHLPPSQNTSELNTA

ΔTm [°C] | Compound
-0.4 | Cc1ccc(NC(=O)c2cccc(N(C)C)c2)cc1NC(=O)c1ccc(O)cc1
0.6 | Nc1n[nH]c2nc3ccccc3nc12 [QUINOXALINE1]

Compound | ΔTm [°C]
COc1cc(C[C@H]2C(=O)OC[C@@H]2Cc2ccc(OC)c(OC)c2)ccc1O [ARCTIGENIN] | 0.4

Molecular target: Cyclin-dependent kinase-like 1 (Homo sapiens) (UniProt Q00532)

ΔTm [°C] | Compound
-0.4 | Cc1ccc(NC(=O)c2cccc(N(C)C)c2)cc1NC(=O)c1ccc(O)cc1
0.2 | Nc1n[nH]c2nc3ccccc3nc12 [QUINOXALINE1]

Compound | ΔTm [°C]
COc1cc(C[C@H]2C(=O)OC[C@@H]2Cc2ccc(OC)c(OC)c2)ccc1O [ARCTIGENIN] | -0.1

Molecular target: Serine/threonine-protein kinase Chk2 (Homo sapiens, UniProt O96017)
Sequence (O96017 whole entry): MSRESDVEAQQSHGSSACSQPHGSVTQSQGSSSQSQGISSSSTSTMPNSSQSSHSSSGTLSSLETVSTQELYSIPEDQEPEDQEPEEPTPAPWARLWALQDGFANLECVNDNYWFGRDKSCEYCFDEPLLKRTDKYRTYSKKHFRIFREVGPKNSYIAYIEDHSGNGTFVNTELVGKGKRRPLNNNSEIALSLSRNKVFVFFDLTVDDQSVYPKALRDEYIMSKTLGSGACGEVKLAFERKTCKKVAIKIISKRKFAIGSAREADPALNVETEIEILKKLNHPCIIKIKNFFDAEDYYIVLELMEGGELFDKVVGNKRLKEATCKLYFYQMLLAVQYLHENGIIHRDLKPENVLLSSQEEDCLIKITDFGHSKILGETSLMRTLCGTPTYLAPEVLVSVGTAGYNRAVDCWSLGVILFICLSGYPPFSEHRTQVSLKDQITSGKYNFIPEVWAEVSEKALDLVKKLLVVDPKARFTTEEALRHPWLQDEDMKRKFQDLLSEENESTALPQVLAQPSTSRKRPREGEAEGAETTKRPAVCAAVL

ΔTm [°C] | Compound
0.9 | Cc1ccc(NC(=O)c2cccc(N(C)C)c2)cc1NC(=O)c1ccc(O)cc1
0.5 | Nc1n[nH]c2nc3ccccc3nc12 [QUINOXALINE1]

Compound | ΔTm [°C]
COc1cc(C[C@H]2C(=O)OC[C@@H]2Cc2ccc(OC)c(OC)c2)ccc1O [ARCTIGENIN] | -0.3

Molecular target: Dual specificity protein kinase CLK1 (Homo sapiens) (UniProt P49759)
Sequence (P49759 whole entry, looked up): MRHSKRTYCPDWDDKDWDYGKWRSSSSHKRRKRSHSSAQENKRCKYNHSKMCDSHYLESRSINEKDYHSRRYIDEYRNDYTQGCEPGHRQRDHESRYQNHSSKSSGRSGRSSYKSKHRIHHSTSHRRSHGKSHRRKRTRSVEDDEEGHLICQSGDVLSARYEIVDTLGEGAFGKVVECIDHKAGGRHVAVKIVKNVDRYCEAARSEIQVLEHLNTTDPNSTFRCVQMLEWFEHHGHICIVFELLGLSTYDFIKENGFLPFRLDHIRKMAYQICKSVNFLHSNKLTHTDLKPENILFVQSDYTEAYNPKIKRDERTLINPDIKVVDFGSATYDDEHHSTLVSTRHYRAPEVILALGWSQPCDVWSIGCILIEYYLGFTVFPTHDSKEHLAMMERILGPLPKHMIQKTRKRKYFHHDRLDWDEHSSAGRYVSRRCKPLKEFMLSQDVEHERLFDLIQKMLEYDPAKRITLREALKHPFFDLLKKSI

ΔTm [°C] | Compound
-0.2 | Cc1ccc(NC(=O)c2cccc(N(C)C)c2)cc1NC(=O)c1ccc(O)cc1
1.6 | Nc1n[nH]c2nc3ccccc3nc12 [QUINOXALINE1]

Compound | ΔTm [°C]
COc1cc(C[C@H]2C(=O)OC[C@@H]2Cc2ccc(OC)c(OC)c2)ccc1O [ARCTIGENIN] | -1

Molecular target: Glycogen synthase kinase-3 beta (Homo sapiens, UniProt P49841)
Sequence (P49841 whole entry, looked up): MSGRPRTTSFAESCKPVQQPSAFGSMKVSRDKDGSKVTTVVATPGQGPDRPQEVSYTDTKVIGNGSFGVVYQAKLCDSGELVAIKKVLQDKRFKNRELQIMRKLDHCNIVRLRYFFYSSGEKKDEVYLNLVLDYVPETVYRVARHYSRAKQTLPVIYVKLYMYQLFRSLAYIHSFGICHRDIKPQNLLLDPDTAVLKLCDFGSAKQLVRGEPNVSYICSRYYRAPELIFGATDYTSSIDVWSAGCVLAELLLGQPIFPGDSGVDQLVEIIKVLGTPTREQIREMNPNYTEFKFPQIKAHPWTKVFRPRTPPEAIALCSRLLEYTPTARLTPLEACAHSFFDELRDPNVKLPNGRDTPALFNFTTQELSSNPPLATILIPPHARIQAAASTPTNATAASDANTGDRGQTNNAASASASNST

ΔTm [°C] | Compound
0 | Cc1ccc(NC(=O)c2cccc(N(C)C)c2)cc1NC(=O)c1ccc(O)cc1
2.2 | Nc1n[nH]c2nc3ccccc3nc12 [QUINOXALINE1]

Compound | ΔTm [°C]
COc1cc(C[C@H]2C(=O)OC[C@@H]2Cc2ccc(OC)c(OC)c2)ccc1O [ARCTIGENIN] | -0.2

Molecular target: Mitogen-activated protein kinase 11 (Homo sapiens, UniProt Q15759)
Sequence (Q15759 whole entry): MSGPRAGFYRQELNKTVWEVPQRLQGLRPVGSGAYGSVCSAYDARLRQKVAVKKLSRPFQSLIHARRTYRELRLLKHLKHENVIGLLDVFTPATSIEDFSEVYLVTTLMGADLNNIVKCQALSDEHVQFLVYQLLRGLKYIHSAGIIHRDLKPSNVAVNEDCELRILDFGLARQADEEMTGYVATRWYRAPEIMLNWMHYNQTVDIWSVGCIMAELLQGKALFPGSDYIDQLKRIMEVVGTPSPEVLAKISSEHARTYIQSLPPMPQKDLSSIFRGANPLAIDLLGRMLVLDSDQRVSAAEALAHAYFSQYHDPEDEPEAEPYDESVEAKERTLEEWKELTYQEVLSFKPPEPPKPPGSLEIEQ

ΔTm [°C] | Compound
4.1 | Cc1ccc(NC(=O)c2cccc(N(C)C)c2)cc1NC(=O)c1ccc(O)cc1
1 | Nc1n[nH]c2nc3ccccc3nc12 [QUINOXALINE1]

Compound | ΔTm [°C]
COc1cc(C[C@H]2C(=O)OC[C@@H]2Cc2ccc(OC)c(OC)c2)ccc1O [ARCTIGENIN] | -0.2

Molecular target: T1, Serine/threonine-protein kinase Nek2 (Homo sapiens) (UniProt P51955)
T1 sequence (whole entry): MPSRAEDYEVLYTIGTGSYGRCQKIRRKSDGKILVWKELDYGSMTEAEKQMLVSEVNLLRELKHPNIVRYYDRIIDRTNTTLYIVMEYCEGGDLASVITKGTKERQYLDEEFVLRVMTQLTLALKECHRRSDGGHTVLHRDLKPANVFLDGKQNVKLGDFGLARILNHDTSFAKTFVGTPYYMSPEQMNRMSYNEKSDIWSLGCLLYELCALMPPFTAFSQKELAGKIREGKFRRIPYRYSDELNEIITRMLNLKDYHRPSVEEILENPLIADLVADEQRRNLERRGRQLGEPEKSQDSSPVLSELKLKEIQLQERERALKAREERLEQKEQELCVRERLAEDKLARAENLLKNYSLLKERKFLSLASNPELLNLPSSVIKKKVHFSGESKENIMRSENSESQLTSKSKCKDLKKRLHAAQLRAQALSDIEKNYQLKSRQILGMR

ΔTm [°C] | Compound
0.3 | Cc1ccc(NC(=O)c2cccc(N(C)C)c2)cc1NC(=O)c1ccc(O)cc1
1.2 | Nc1n[nH]c2nc3ccccc3nc12 [QUINOXALINE1]

Compound | ΔTm [°C]
COc1cc(C[C@H]2C(=O)OC[C@@H]2Cc2ccc(OC)c(OC)c2)ccc1O [ARCTIGENIN] | 1.1

Molecular target: Serine/threonine-protein kinase PAK 5 (Homo sapiens) (UniProt Q9P286)
Sequence (Q9P286 whole entry, looked up): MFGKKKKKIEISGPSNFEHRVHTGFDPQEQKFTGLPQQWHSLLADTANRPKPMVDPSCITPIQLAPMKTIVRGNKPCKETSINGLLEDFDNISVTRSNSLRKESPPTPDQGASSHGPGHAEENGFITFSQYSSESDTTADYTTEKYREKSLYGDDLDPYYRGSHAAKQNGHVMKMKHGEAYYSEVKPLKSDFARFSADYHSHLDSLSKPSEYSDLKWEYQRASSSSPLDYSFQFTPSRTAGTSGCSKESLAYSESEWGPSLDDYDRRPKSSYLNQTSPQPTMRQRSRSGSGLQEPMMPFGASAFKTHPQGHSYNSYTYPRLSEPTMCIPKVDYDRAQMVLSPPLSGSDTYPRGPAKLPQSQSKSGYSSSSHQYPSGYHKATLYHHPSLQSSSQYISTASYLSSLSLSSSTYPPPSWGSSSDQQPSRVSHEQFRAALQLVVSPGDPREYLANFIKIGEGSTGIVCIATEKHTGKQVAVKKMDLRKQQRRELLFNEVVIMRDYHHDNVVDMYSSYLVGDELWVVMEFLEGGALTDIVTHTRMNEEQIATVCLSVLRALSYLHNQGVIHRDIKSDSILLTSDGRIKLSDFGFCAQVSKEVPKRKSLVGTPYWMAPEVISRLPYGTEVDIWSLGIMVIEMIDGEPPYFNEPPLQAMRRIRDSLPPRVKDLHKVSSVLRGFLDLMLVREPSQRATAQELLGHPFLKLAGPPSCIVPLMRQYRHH

ΔTm [°C] | Compound
0.6 | Cc1ccc(NC(=O)c2cccc(N(C)C)c2)cc1NC(=O)c1ccc(O)cc1
0.2 | Nc1n[nH]c2nc3ccccc3nc12 [QUINOXALINE1]

Compound | ΔTm [°C]
COc1cc(C[C@H]2C(=O)OC[C@@H]2Cc2ccc(OC)c(OC)c2)ccc1O [ARCTIGENIN] | 0.1

Molecular target: T2, 3-phosphoinositide-dependent protein kinase 1 (Homo sapiens) (UniProt O15530)
T2 sequence (whole entry): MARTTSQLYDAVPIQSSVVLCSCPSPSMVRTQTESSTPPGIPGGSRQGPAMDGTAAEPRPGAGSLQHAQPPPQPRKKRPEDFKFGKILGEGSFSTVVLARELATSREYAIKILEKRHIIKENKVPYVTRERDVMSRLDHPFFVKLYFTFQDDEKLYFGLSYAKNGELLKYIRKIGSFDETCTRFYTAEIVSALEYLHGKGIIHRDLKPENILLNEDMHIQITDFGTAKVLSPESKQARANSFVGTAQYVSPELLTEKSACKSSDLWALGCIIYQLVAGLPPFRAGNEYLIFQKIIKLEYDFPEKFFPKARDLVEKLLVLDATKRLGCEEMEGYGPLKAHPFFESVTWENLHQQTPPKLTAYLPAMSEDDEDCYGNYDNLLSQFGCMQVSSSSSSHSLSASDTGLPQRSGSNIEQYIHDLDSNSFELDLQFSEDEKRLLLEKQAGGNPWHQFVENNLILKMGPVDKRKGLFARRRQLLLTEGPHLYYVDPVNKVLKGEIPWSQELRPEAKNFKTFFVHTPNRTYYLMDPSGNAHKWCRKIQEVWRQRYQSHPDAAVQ

ΔTm [°C] | Compound
-0.4 | Cc1ccc(NC(=O)c2cccc(N(C)C)c2)cc1NC(=O)c1ccc(O)cc1
0.5 | Nc1n[nH]c2nc3ccccc3nc12 [QUINOXALINE1]

Compound | ΔTm [°C]
COc1cc(C[C@H]2C(=O)OC[C@@H]2Cc2ccc(OC)c(OC)c2)ccc1O [ARCTIGENIN] | 0

Molecular target: Serine/threonine-protein kinase pim-1 (Homo sapiens) (UniProt P11309)

ΔTm [°C] | Compound
-0.3 | Cc1ccc(NC(=O)c2cccc(N(C)C)c2)cc1NC(=O)c1ccc(O)cc1
-0.8 | Nc1n[nH]c2nc3ccccc3nc12 [QUINOXALINE1]

Compound | ΔTm [°C]
COc1cc(C[C@H]2C(=O)OC[C@@H]2Cc2ccc(OC)c(OC)c2)ccc1O [ARCTIGENIN] | -0.3

Molecular target: T3, Serine/threonine-protein kinase PLK4 (Homo sapiens) (UniProt O00444)
T3 sequence (whole entry): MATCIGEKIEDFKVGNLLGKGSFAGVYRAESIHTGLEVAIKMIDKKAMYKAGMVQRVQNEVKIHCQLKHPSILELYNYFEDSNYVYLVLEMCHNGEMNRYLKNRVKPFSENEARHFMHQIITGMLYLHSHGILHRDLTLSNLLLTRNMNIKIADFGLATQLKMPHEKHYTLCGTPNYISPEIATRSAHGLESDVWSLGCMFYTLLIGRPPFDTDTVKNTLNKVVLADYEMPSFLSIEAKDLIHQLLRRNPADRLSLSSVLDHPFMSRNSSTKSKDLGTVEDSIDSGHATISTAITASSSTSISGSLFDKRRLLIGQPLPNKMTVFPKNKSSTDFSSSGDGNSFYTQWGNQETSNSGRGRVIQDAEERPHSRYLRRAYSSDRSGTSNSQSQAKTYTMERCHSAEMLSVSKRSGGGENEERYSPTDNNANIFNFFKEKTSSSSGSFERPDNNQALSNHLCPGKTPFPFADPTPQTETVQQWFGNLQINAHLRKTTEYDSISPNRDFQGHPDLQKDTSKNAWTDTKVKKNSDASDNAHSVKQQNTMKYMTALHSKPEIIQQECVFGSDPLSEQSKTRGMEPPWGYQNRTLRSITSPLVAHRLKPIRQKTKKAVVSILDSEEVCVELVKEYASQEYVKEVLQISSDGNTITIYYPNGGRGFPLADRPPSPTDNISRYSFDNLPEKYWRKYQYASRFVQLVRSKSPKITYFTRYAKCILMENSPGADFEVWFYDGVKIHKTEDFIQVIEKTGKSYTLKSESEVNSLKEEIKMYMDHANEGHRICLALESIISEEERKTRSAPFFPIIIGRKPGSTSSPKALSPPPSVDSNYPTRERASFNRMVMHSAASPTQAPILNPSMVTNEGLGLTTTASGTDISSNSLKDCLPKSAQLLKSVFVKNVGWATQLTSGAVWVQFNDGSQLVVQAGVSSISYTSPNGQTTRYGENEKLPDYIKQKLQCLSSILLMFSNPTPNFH

ΔTm [°C] | Compound
0.8 | Cc1ccc(NC(=O)c2cccc(N(C)C)c2)cc1NC(=O)c1ccc(O)cc1
1.5 | Nc1n[nH]c2nc3ccccc3nc12 [QUINOXALINE1]

Compound | ΔTm [°C]
COc1cc(C[C@H]2C(=O)OC[C@@H]2Cc2ccc(OC)c(OC)c2)ccc1O [ARCTIGENIN] | 0

Molecular target: Ribosomal protein S6 kinase alpha-3 (Homo sapiens) (UniProt P51812)
Sequence (P51812 whole entry): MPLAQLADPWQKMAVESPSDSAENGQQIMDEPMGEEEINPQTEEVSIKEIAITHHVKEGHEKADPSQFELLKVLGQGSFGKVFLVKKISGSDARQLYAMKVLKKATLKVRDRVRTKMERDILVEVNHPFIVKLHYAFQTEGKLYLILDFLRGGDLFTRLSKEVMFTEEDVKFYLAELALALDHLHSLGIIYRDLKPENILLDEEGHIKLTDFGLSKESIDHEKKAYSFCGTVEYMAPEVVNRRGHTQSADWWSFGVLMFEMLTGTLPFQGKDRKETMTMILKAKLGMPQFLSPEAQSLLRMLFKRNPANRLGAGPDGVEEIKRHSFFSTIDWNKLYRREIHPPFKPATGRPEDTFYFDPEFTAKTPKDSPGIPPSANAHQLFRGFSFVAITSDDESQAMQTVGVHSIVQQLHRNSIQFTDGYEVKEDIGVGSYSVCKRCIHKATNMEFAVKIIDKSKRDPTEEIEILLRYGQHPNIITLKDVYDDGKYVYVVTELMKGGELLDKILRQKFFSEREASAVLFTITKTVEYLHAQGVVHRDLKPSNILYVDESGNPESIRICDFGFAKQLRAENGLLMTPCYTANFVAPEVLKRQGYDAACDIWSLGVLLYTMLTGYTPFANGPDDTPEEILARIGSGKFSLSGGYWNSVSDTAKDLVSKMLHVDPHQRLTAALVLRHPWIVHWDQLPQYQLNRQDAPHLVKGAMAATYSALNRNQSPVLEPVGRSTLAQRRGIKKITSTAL

ΔTm [°C] | Compound
-0.1 | Cc1ccc(NC(=O)c2cccc(N(C)C)c2)cc1NC(=O)c1ccc(O)cc1
0.9 | Nc1n[nH]c2nc3ccccc3nc12 [QUINOXALINE1]

Compound | ΔTm [°C]
COc1cc(C[C@H]2C(=O)OC[C@@H]2Cc2ccc(OC)c(OC)c2)ccc1O [ARCTIGENIN] | -0.1

Molecular target: STE20-like serine/threonine-protein kinase (Homo sapiens) (UniProt Q9H2G2)
Sequence (Q9H2G2 whole entry, looked up): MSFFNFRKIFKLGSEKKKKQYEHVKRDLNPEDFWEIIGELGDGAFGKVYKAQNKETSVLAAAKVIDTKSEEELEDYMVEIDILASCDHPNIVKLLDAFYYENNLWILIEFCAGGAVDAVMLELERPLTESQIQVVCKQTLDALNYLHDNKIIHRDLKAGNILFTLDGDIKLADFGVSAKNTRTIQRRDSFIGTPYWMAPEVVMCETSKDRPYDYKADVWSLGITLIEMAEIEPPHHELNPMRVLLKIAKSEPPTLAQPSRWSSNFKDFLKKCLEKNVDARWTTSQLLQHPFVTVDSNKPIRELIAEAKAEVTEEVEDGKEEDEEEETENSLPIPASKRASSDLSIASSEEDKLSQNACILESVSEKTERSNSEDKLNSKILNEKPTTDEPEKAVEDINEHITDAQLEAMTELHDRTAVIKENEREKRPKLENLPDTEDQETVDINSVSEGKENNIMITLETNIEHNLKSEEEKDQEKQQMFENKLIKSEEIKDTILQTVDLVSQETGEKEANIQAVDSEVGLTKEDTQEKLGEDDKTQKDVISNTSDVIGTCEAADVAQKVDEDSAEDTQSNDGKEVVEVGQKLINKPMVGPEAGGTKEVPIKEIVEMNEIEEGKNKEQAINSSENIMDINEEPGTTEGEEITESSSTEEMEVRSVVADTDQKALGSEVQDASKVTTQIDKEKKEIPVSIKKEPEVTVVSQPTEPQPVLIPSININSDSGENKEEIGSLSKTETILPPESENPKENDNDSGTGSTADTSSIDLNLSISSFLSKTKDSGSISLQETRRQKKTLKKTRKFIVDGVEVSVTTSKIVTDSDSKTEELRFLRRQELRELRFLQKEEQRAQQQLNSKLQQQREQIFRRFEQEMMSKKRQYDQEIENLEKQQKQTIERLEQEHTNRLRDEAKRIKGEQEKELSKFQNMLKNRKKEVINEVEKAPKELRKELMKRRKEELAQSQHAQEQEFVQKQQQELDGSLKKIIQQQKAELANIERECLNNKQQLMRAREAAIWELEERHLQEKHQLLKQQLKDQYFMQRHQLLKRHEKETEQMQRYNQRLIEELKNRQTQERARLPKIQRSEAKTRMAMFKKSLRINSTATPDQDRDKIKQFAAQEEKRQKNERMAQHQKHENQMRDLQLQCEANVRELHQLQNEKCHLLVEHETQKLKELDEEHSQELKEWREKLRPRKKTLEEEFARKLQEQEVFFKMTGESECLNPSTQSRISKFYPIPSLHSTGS

ΔTm [°C] | Compound
0.9 | Cc1ccc(NC(=O)c2cccc(N(C)C)c2)cc1NC(=O)c1ccc(O)cc1
2 | Nc1n[nH]c2nc3ccccc3nc12 [QUINOXALINE1]

Compound | ΔTm [°C]
COc1cc(C[C@H]2C(=O)OC[C@@H]2Cc2ccc(OC)c(OC)c2)ccc1O [ARCTIGENIN] | -0.5

Molecular target: Serine/threonine-protein kinase 26 (Homo sapiens) (UniProt Q9P289)

ΔTm [°C] | Compound
1 | Cc1ccc(NC(=O)c2cccc(N(C)C)c2)cc1NC(=O)c1ccc(O)cc1
0.7 | Nc1n[nH]c2nc3ccccc3nc12 [QUINOXALINE1]

Compound | ΔTm [°C]
COc1cc(C[C@H]2C(=O)OC[C@@H]2Cc2ccc(OC)c(OC)c2)ccc1O [ARCTIGENIN] | 0.2

Molecular target: Serine/threonine-protein kinase 25 (Homo sapiens) (UniProt O00506)

ΔTm [°C] | Compound
-0.3 | Cc1ccc(NC(=O)c2cccc(N(C)C)c2)cc1NC(=O)c1ccc(O)cc1
1.3 | Nc1n[nH]c2nc3ccccc3nc12 [QUINOXALINE1]

Compound | ΔTm [°C]
COc1cc(C[C@H]2C(=O)OC[C@@H]2Cc2ccc(OC)c(OC)c2)ccc1O [ARCTIGENIN] | 0.1
